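Each compound was tested at five concentrations against cells in 96-well plates for 48 hours. GI50 marks 50% less growth. The concentration for full growth arrest is given as TGI.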
What was measured:
Assay in all cases: NCI tumour cell line growth inhibition, 48 h
NCI-H226 lung = tested on: NCI-H226 lung
HOP-62 NSCLC = tested on: HOP-62 NSCLC
MDA-MB-231 breast = tested on: MDA-MB-231 breast
IGROV1 ovarian = tested on: IGROV1 ovarian
A549 NSCLC = tested on: A549 NSCLC
T-47D breast = tested on: T-47D breast
SK-MEL-2 melanoma = tested on: SK-MEL-2 melanoma
PC-3 prostate = tested on: PC-3 prostate
786-0 renal = tested on: 786-0 renal
OVCAR-5 ovarian = tested on: OVCAR-5 ovarian

`C/C(Cc1ccc(Cl)cc1)=C(/c1ccc(Cl)cc1)c1ccc(OCCN(C)C)cc1` showed a GI50 (NCI-H226 lung) of 4.99 µM, a TGI (NCI-H226 lung) of 10.5 µM and a GI50 (HOP-62 NSCLC) of 6.07 µM. It also gave a TGI (HOP-62 NSCLC) of 11.8 µM, a GI50 (MDA-MB-231 breast) of 4.27 µM and a TGI (MDA-MB-231 breast) of 8.71 µM. For the same molecule, the GI50 (IGROV1 ovarian) was 3.73 µM, the TGI (IGROV1 ovarian) was 8.56 µM and the GI50 (A549 NSCLC) was 4.52 µM. The TGI (A549 NSCLC) was 10.3 µM, the GI50 (T-47D breast) was 3.83 µM and the TGI (T-47D breast) was 9.92 µM. It also gave a GI50 (SK-MEL-2 melanoma) of 5.69 µM, a TGI (SK-MEL-2 melanoma) of 11.4 µM and a GI50 (PC-3 prostate) of 4.34 µM. For the same molecule, the TGI (PC-3 prostate) was 9.21 µM, the GI50 (786-0 renal) was 4.55 µM and the TGI (786-0 renal) was 9.78 µM. It also gave a GI50 (OVCAR-5 ovarian) of 4.79 µM and a TGI (OVCAR-5 ovarian) of 9.3 µM.

`COc1cnc2c(c1)C(=O)c1c-2n(CCCN2CCCC2)c(=O)c2cc(F)ccc12` showed a GI50 (NCI-H226 lung) of 0.164 µM, a TGI (NCI-H226 lung) of 0.382 µM and a GI50 (HOP-62 NSCLC) of 0.212 µM. The TGI (HOP-62 NSCLC) was 0.687 µM, the GI50 (MDA-MB-231 breast) was 0.926 µM and the TGI (MDA-MB-231 breast) was 2.96 µM. It also gave a GI50 (IGROV1 ovarian) of 0.363 µM, a TGI (IGROV1 ovarian) of 3.34 µM and a GI50 (A549 NSCLC) of 0.0936 µM. For the same molecule, the TGI (A549 NSCLC) was 0.351 µM, the GI50 (T-47D breast) was 0.218 µM and the TGI (T-47D breast) was 10.2 µM. For the same molecule, the GI50 (SK-MEL-2 melanoma) was 1.39 µM, the TGI (SK-MEL-2 melanoma) was 10.4 µM and the GI50 (PC-3 prostate) was 0.42 µM. The TGI (PC-3 prostate) was 12.8 µM, the GI50 (786-0 renal) was 0.257 µM and the TGI (786-0 renal) was 1.11 µM. For the same molecule, the GI50 (OVCAR-5 ovarian) was 0.41 µM and the TGI (OVCAR-5 ovarian) was 3.23 µM.

`O=C(c1ccccc1)c1nc2ccc(C(F)(F)F)cc2[n+]([O-])c1C(F)(F)F` showed a GI50 (NCI-H226 lung) of 59 µM, a TGI (NCI-H226 lung) greater than 100 µM and a GI50 (HOP-62 NSCLC) of 59.6 µM. For the same molecule, the TGI (HOP-62 NSCLC) was greater than 100 µM, the GI50 (MDA-MB-231 breast) was 45.1 µM and the TGI (MDA-MB-231 breast) was greater than 100 µM. The GI50 (IGROV1 ovarian) was 16.4 µM, the TGI (IGROV1 ovarian) was 52.2 µM and the GI50 (A549 NSCLC) was 26 µM. For the same molecule, the TGI (A549 NSCLC) was greater than 100 µM, the GI50 (T-47D breast) was 20.4 µM and the TGI (T-47D breast) was greater than 100 µM. The GI50 (SK-MEL-2 melanoma) was 27.5 µM, the TGI (SK-MEL-2 melanoma) was greater than 100 µM and the GI50 (PC-3 prostate) was 24.5 µM. It also gave a TGI (PC-3 prostate) greater than 100 µM, a GI50 (786-0 renal) of 48 µM and a TGI (786-0 renal) greater than 100 µM. For the same molecule, the GI50 (OVCAR-5 ovarian) was 34.6 µM and the TGI (OVCAR-5 ovarian) was greater than 100 µM.

`COc1ccc(C(=O)COc2cccc(/C=C3\CSc4ccc(C)cc4C3=O)c2)cc1` showed a GI50 (NCI-H226 lung) greater than 100 µM, a TGI (NCI-H226 lung) greater than 100 µM and a GI50 (HOP-62 NSCLC) of 24.9 µM. It also gave a TGI (HOP-62 NSCLC) greater than 100 µM, a GI50 (MDA-MB-231 breast) of 24 µM and a TGI (MDA-MB-231 breast) greater than 100 µM. It also gave a GI50 (IGROV1 ovarian) of 12.2 µM, a TGI (IGROV1 ovarian) of 43.8 µM and a GI50 (A549 NSCLC) greater than 100 µM. For the same molecule, the TGI (A549 NSCLC) was greater than 100 µM, the GI50 (T-47D breast) was 11.7 µM and the TGI (T-47D breast) was greater than 100 µM. It also gave a GI50 (SK-MEL-2 melanoma) of 15.9 µM, a TGI (SK-MEL-2 melanoma) greater than 100 µM and a GI50 (PC-3 prostate) of 5.86 µM. It also gave a TGI (PC-3 prostate) greater than 100 µM, a GI50 (786-0 renal) of 38.5 µM and a TGI (786-0 renal) greater than 100 µM. It also gave a GI50 (OVCAR-5 ovarian) of 51.9 µM and a TGI (OVCAR-5 ovarian) greater than 100 µM.

`O=C(CCCCCCSc1nc(-c2ccc(Cl)cc2)cc(-c2ccc(Cl)cc2)n1)NO` gave a GI50 (NCI-H226 lung) of 1.71 µM, a TGI (NCI-H226 lung) of 17.5 µM and a GI50 (HOP-62 NSCLC) of 1.52 µM. The TGI (HOP-62 NSCLC) was 6.47 µM, the GI50 (MDA-MB-231 breast) was 2.15 µM and the TGI (MDA-MB-231 breast) was 13.3 µM. The GI50 (IGROV1 ovarian) was 1.7 µM, the TGI (IGROV1 ovarian) was 12.8 µM and the GI50 (A549 NSCLC) was 1.42 µM. The TGI (A549 NSCLC) was 5.1 µM, the GI50 (T-47D breast) was 1.39 µM and the TGI (T-47D breast) was 9.13 µM. The GI50 (SK-MEL-2 melanoma) was 4.02 µM, the TGI (SK-MEL-2 melanoma) was 18.4 µM and the GI50 (PC-3 prostate) was 1.54 µM. The TGI (PC-3 prostate) was 16.3 µM, the GI50 (786-0 renal) was 1.59 µM and the TGI (786-0 renal) was 6.32 µM. It also gave a GI50 (OVCAR-5 ovarian) of 1.55 µM and a TGI (OVCAR-5 ovarian) of 5.63 µM.

`O=C1c2c(O)cc(O)cc2OC(c2ccc(O)cc2O)C1O` (stereo unspecified) gave a GI50 (NCI-H226 lung) greater than 100 µM, a TGI (NCI-H226 lung) greater than 100 µM and a GI50 (HOP-62 NSCLC) greater than 100 µM. It also gave a TGI (HOP-62 NSCLC) greater than 100 µM, a TGI (MDA-MB-231 breast) greater than 100 µM and a GI50 (IGROV1 ovarian) greater than 100 µM. It also gave a TGI (IGROV1 ovarian) greater than 100 µM, a TGI (A549 NSCLC) greater than 100 µM and a TGI (T-47D breast) greater than 100 µM. The GI50 (SK-MEL-2 melanoma) was greater than 100 µM, the TGI (SK-MEL-2 melanoma) was greater than 100 µM and the TGI (PC-3 prostate) was greater than 100 µM. For the same molecule, the GI50 (786-0 renal) was greater than 100 µM, the TGI (786-0 renal) was greater than 100 µM and the GI50 (OVCAR-5 ovarian) was greater than 100 µM. For the same molecule, the TGI (OVCAR-5 ovarian) was greater than 100 µM.

Reference: PubChem BioAssay (NCI)
